Results published in US9782415B2, “Substituted pyrazolo[1,5-a]pyrimidine compounds as Trk kinase inhibitors” (Array BioPharma, Inc., priority 2009, dated 2017).
Where two headings read alike, the source gives them in different places.

Experiments:
Assay type in all cases: biochemical
Human Jak2 kinase domain = Human Jak2 kinase domain (Homo sapiens (Human), UniProt O60674); test: Jak2 Inhibition Assay (Omnia kinase assay)
Excerpt: The assays described in Examples C, D, E and F for the determination of JAK1, JAK2, JAK3 and Tyk2 kinase activity, respectively, utilized the Omnia® Kinase fluorescence peptide substrate-based technology (Invitrogen). The specific components of the assay mixture are described in Examples C, D and E. […] Two-μL aliquots of these were transferred to a fresh plate for a ten-fold intermediate dilution with assay buffer. […] Human Jak2 kinase domain comprising amino acids 808-1132 was purchased from Invitrogen Corporation, Carlsbad, Calif.

Human Tyk2 kinase domain = Human Tyk2 kinase domain (Homo sapiens (Human), UniProt P29597); test: Tyk2 Inhibition Assay (Omnia kinase assay); details: Table 2; 500 μM ATP
Method: (§1) The assays described in Examples C, D, E and F for the determination of JAK1, JAK2, JAK3 and Tyk2 kinase activity, respectively, utilized the Omnia® Kinase fluorescence peptide substrate-based technology (Invitrogen). […] The reactions were therefore read at excitation 360 nm and emission was measured at 485 nm every 50 seconds for 45 minutes using a PerkinElmer EnVision Multilabel Plate Reader.
(§2) The final buffer conditions for each of the JAK1, JAK2, JAK3 and Tyk2 assays were as follows: 25 mM HEPES, pH 7.4, 10 mM MgCl2, 0.01% Triton X-100 and 1 mM DTT.
(§3) Compounds were prepared at 50× the final concentration in DMSO by conducting 3-fold serial dilutions from a 500-μM or 1000-μM intermediate dilution to give a 10-point dosing curve having a high dose of 10 or 20 μM. Two-μL aliquots of these were transferred to a fresh plate for a ten-fold intermediate dilution with assay buffer. Five-μL aliquots of the diluted compounds were then transferred to 20-μL of assay mixtures described in Examples C, D, E and F for a final concentration of DMSO of 2%. A standard or reference compound was typically included on each assay plate to validate that plate. For each plate, percent of control (POC) values were calculated for each well according to the following equation: […]
(§4) IC50's were estimated from the POC's using a standard 4-parameter logistic model: […]

[1] = molecular target: GST-tagged human Jak3 kinase domain (Homo sapiens (Human), UniProt P52333); test: Jak3 Inhibition Assay (Omnia kinase assay); details: Table 2; 500 μM ATP
Method: as §1, §2, §3, §4

[2] = molecular target: GST-tagged human Jak1 kinase domain (Homo sapiens (Human), UniProt P23458); test: Jak1 Inhibition Assay (Omnia kinase assay); details: Table 2; 500 μM ATP
Method: as §1, §2, §3, §4

[3] = molecular target: histidine-tagged recombinant human TrkA, cytoplasmic domain (Homo sapiens (Human), UniProt P04629); test: TrkA ELISA Assay; details: Table 1, 500 μM ATP, read-out: TrkA Enzyme IC50
Method: An enzyme-linked immunosorbant assay (ELISA) was used to assess TrkA kinase activity in the presence of inhibitors. […] The assay buffer consisted of 25 mM MOPS pH 7.5, 0.005% (v/v) Triton X-100 and 5 mM MgCl2. The reaction mixture was removed from the plate by washing with PBS containing 0.1% (v/v) Tween 20. […] After the addition of 1M phosphoric acid, the chromogenic substrate color intensity was quantitated via absorbance at 450 nm.

[4] = read-out: Jak2 Enzyme % inhibition at 1000 nM, Table 1, 1000 nM test compound

Human Jak2 kinase domain, sequence (O60674 808-1132): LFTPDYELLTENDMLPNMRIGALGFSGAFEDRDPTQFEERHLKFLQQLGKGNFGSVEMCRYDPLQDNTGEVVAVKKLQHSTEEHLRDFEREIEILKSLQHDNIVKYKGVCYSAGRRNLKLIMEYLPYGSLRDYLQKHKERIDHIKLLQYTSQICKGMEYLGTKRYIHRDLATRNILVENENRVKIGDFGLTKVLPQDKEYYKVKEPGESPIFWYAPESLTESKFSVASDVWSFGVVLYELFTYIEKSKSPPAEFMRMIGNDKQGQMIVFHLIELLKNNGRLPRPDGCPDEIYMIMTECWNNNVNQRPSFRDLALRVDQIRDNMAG
Human Tyk2 kinase domain, sequence (P29597 886-1187): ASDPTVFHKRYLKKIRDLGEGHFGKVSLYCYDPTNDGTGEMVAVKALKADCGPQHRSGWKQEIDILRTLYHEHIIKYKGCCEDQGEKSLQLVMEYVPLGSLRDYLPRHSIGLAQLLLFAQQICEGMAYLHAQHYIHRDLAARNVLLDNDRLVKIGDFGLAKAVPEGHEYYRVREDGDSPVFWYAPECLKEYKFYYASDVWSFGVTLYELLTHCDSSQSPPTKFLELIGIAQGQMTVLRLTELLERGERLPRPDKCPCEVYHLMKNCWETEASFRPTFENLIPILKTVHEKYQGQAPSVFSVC
GST-tagged human Jak1 kinase domain, sequence (P23458 866-1154): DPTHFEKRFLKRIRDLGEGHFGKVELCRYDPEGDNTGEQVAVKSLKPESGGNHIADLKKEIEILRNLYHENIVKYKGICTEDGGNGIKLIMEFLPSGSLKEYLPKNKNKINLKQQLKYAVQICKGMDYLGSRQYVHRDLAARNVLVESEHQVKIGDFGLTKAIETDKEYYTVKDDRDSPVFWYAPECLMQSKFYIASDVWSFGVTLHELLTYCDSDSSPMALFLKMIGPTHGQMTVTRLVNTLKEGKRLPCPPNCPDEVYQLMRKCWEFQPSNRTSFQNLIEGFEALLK
GST-tagged human Jak3 kinase domain, sequence (P52333 781-1124): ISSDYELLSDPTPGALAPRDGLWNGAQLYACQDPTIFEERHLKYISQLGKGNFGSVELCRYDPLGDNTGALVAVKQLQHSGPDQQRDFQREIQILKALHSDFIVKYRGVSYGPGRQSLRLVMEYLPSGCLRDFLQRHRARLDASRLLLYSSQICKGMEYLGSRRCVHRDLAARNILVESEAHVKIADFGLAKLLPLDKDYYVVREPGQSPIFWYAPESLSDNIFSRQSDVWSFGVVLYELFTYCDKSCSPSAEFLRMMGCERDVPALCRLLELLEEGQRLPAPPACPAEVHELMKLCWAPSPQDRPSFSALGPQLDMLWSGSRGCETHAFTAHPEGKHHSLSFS
histidine-tagged recombinant human TrkA, cytoplasmic domain, sequence (P04629 440-796): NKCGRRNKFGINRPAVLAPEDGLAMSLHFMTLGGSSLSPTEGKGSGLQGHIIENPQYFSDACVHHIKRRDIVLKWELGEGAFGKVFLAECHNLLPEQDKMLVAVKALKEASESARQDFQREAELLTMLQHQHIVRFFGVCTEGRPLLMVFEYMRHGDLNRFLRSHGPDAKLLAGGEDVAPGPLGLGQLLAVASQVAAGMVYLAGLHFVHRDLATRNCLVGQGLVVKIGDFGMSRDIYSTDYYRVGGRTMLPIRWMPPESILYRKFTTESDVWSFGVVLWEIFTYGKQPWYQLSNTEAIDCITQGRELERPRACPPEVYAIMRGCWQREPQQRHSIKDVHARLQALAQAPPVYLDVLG

O=C(N[C@H]1CC[C@H](O)CC1)c1cnn2ccc(N3CCC[C@@H]3c3cncc(F)c3)nc12 [Example 99, 5-((R)-2-(5-fluoropyridin-3-yl)pyrrolidin-1-yl)-N-((trans)-4-hydroxycyclohexyl)pyrazolo[1,5-a]pyrimidine-3-carboxamide]
inhibition at 1 µM (Human Jak2 kinase domain; [4]): 45.8%

O=C(N[C@H]1CC[C@@H](O)CC1)c1cnn2ccc(N3CCC[C@@H]3c3cncc(F)c3)nc12 [Example 100, 5-((R)-2-(5-fluoropyridin-3-yl)pyrrolidin-1-yl)-N-((cis)-4-hydroxycyclohexyl)pyrazolo[1,5-a]pyrimidine-3-carboxamide]
inhibition at 1 µM (Human Jak2 kinase domain; [4]): 13.8%

O=C(N[C@@H]1C2CC[C@@H](C2)[C@@H]1CO)c1cnn2ccc(N3CCC[C@@H]3c3cncc(F)c3)nc12 [Example 138, 5-((R)-2-(5-fluoropyridin-3-yl)pyrrolidin-1-yl)-N-((2R,3S,4S)-3-(hydroxymethyl)bicyclo[2.2.1]heptan-2-yl)pyrazolo[1,5-a]pyrimidine-3-carboxamide]
inhibition at 1 µM (Human Jak2 kinase domain; read-out: Jak2 Enzyme % inhibition at 1000 nM): 10%

COc1ncc(F)cc1[C@H]1CCCN1c1ccn2ncc(C(=O)N[C@H]3CC[C@H](O)CC3)c2n1 [Example 140, 5-((R)-2-(5-fluoro-2-methoxypyridin-3-yl)pyrrolidin-1-yl)-N-((trans)-4-hydroxycyclohexyl)pyrazolo[1,5-a]pyrimidine-3-carboxamide]
IC50 (Human Tyk2 kinase domain): > 1000 nM

Cc1ncc(F)cc1[C@H]1CCCN1c1ccn2ncc(C(=O)N[C@H]3CC[C@H](O)CC3)c2n1 [Example 194, 5-((R)-2-(5-fluoro-2-methylpyridin-3-yl)pyrrolidin-1-yl)-N-((trans)-4-hydroxycyclohexyl)pyrazolo[1,5-a]pyrimidine-3-carboxamide]
IC50 [1]: > 1000 nM
IC50 [2]: > 1000 nM
IC50 (Human Tyk2 kinase domain): > 1000 nM

Cc1ncc(F)cc1[C@H]1CCCN1c1ccn2ncc(C(=O)N[C@@H]3CCC[C@H]3O)c2n1 [Example 197, 5-((R)-2-(5-fluoro-2-methylpyridin-3-yl)pyrrolidin-1-yl)-N-((1R,2R)-2-hydroxycyclopentyl)pyrazolo[1,5-a]pyrimidine-3-carboxamide]
IC50 [3]: 4.8 nM
IC50 (Human Jak2 kinase domain; Table 1, 500 μM ATP, >1000 nM when >50% inhibition not observed at 1000 nM, read-out: Jak2 Enzyme IC50): > 1000 nM
